Assay results as given in patent publication US10947196B2, “Beta adrenergic agonist and methods of using the same” (CURASEN THERAPEUTICS, INC., priority 2019, dated 2021).
pEC50: −log10 of the molar value. Read-outs that look alike come from different tables or passages of the source.

Tests used:
[1] = target: β2 adrenergic receptor (Homo sapiens (Human), UniProt P07550); experiment: cAMP Gs dynamic HTRF assay, β2 expressing CHO cells; format: cell-based; settings: B2-AR; for EC50: CHO-K1 (HitHunter), read-out: Average pEC50 [Receptor subtype: B2-AR, Cell type: CHO-K1 (HitHunter)] (converted); for pEC50: CHO-K cells, read-out: Average EC50 [Receptor subtype: B2-AR, Cell type: CHO-K]
Experimental: (§1) cAMP homogeneous time-resolved fluorescence (HTRF). Compound efficacy was determined using the cAMP Gs dynamic HTRF assay (Cisbio, catalog #62AM4PEC) largely following the manufacturer's instructions, also detailed below.
(§2) Compound preparation. […] Standard serial dilution curves were 10-point, 5-fold dilutions starting from a highest concentration of 10 μM. […] Assay plates were centrifuged at 500×g for 10 seconds. Compounds and IBMX were prepared at 2× final dose to compensate for addition of cells.
(§3) Cell preparation. 1× stimulation buffer, washing PBS (Dulbecco's phosphate-buffered saline, −Mg −Ca; Caisson Labs, catalog #PBL01), assay PBS (Dulbecco's phosphate-buffered saline, +Mg, +Ca; Caisson Labs, catalog #PBL02) and Versene (0.02% EDTA disodium salt solution in PBS without calcium or magnesium; Caisson Labs, catalog #EDL01) were pre-warmed to 37° C. Cells expressing beta-adrenergic receptor were washed in washing PBS to remove growth medium and then released from the surface by incubating with Versene for 5-10 minutes at 37° C. Cells were harvested using assay PBS, counted manually by hemocytometer or by an automated cell counter, pelleted by centrifugation (200×g, 5 minutes) and resuspended in 37° C. 1× stimulation buffer to a final density of 1.5×10^6 cells/mL. 5 μL of the suspended cell solution (7500 cell total) were added to all wells of the 384 well assay plate, the assay plate was covered with an Axygen® plate seal (Corning PCR-SP) and incubated in a humidified 37° C. environment supplemented with 5% CO2 for 30 minutes.
(§4) HTRF reagent addition, reading and data analysis. After 30 minutes of cell stimulation with test compound, the assay plates were centrifuged at 500×g for 10 seconds, and incubation was stopped with the addition of 5 μL cAMP-D2 acceptor, diluted 1:21 in detection and lysis buffer 2 (Cisbio 62CL2FDF) was added to all cells. Subsequently, 5 μL Anti-cAMP-Eu Donor, diluted 1:21 in detection and lysis buffer 2, was added to cells. Plates were sealed and reactions gently ‘vortexed’ at 900 rpm on a Heidolph Titramax 1000 for at least 30 minutes at room temperature. Plates were centrifuged again at 500×g for 10 seconds, and HTRF was measured using a Tecan Spark plate reader at 50 flashes per well. […] Potency estimates (EC50) were derived from the four-parameter nonlinear regression of the concentration-effect curve and an estimate of relative efficacy was determined by comparing the magnitude of the test compound HTRF signal window (min−max dose) with the signal window of the full agonist control, isoproterenol.

[2] = target: β1-adrenergic receptor (Homo sapiens (Human), UniProt P08588); experiment: cAMP Gs dynamic HTRF assay, β1 expressing CHO cells; format: cell-based; settings: B1-AR; for pEC50: CHO-K cells, read-out: Average EC50 [Receptor subtype: B1-AR, Cell type: CHO-K]; for Average pEC50 [Receptor subtype: B1-AR; Cell type: CHO-K1 (HitHunter)] / EC50: CHO-K1 (HitHunter); for EC50: read-out: Average pEC50 [Receptor subtype: B1-AR, Cell type: CHO-K1 (HitHunter)] (converted)
Experimental: as §1, §2, §3, §4

β1-adrenergic receptor, sequence (P08588 whole entry, species assumed): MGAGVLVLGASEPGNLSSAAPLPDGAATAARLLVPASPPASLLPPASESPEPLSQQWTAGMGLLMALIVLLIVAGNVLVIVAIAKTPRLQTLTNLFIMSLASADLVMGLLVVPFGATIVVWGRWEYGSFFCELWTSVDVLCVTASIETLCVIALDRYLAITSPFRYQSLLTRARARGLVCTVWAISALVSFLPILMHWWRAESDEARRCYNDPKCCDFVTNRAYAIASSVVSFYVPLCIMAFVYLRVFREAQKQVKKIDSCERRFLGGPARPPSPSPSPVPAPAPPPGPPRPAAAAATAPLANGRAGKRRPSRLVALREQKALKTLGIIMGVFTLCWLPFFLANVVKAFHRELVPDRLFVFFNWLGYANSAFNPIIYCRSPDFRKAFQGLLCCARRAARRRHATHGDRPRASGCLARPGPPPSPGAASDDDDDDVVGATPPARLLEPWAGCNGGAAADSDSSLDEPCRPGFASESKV
β2 adrenergic receptor, sequence (P07550 whole entry, species assumed): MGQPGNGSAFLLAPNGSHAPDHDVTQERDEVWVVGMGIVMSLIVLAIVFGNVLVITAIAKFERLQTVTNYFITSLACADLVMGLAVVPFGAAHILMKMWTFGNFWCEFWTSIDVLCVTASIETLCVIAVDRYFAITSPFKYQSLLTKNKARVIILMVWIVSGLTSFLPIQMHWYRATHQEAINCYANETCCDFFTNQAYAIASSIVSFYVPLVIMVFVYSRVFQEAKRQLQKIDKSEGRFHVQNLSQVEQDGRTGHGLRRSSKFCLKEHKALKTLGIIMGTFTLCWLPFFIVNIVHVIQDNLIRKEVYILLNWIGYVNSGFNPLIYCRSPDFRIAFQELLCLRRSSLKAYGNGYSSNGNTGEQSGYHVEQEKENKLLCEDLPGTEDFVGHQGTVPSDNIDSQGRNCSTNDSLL

Compound | EC50 [1] [nM] | pEC50 [1] | other results
CC(C)(C)NC[C@H](O)c1cccnc1C(C)(C)C [Compound 03-79] | > 1000 | – | –
Cc1cc([C@@H](O)CNC(C)(C)C)ccn1 [Compound 03-108] | > 1000 | – | –
CC(C)(C)NCC(O)c1cccnc1C(=O)NC(C)(C)C (stereo not drawn) [Compound 03-112] | > 1000 | < 6.00 | –
CC(C)(C)NCC(O)c1cccnc1C(=O)O (stereo not drawn) [Compound 03-113] | > 1000 | < 6.00 | –
Cc1ncccc1[C@H](O)CNC(C)(C)C [Compound 03-116] | > 1000 | < 6.00 | –
CC(C)(C)NC[C@H](O)c1cccnc1C(F)(F)F [Compound 03-118] | 100 to 1000 | 6.00 to 7.00 | –
CC(C)(C)NC[C@H](O)c1cccc(-c2ccc(Cl)cc2)n1 [Compound 03-119] | – | – | Average pEC50 [Receptor subtype: B1-AR; Cell type: CHO-K1 (HitHunter)] [2]: C (C = <7-6); pEC50 [2]: 6.00 to 7.00
CC(C)(C)NC[C@@H](O)c1cccc(-c2cccc(F)c2)n1 [Compound 03-132] | – | – | Average pEC50 [Receptor subtype: B1-AR; Cell type: CHO-K1 (HitHunter)] [2]: D (D < 6); pEC50 [2]: < 6.00
CC(C)(C)NC[C@@H](O)c1cccc(N2CC3CCCC3C2)n1 (stereo partly drawn) [Compound 03-136] | 10 to 100 | 7.00 to 8.00 | –
CC(C)(C)NC[C@@H](O)c1cccc(N2CCCCC2)n1 [Compound 03-138] | – | – | EC50 [2]: > 1000 nM; pEC50 [2]: < 6.00
CN1CCN(c2cccc([C@@H](O)CNC(C)(C)C)n2)CC1 [Compound 03-139] | – | – | Average pEC50 [Receptor subtype: B1-AR; Cell type: CHO-K1 (HitHunter)] [2]: D (D < 6); pEC50 [2]: < 6.00
CC(C)(C)NC[C@@H](O)c1cccc(-c2ccc(F)cc2)n1 [Compound 03-146] | – | – | EC50 [2]: 100 to 1000 nM; pEC50 [2]: 6.00 to 7.00
Cc1ccccc1-c1cccc([C@H](O)CNC(C)(C)C)n1 [Compound 03-150] | – | – | EC50 [2]: > 1000 nM; pEC50 [2]: < 6.00
CCN(CC)c1cccc([C@@H](O)CNC(C)(C)C)n1 [Compound 03-159] | – | – | EC50 [2]: 10 to 100 nM; pEC50 [2]: 7.00 to 8.00
CCOc1cccc([C@H](O)CNC(C)(C)C)n1 [Compound 03-178] | 100 to 1000 | 6.00 to 7.00 | –
CC(=O)Nc1cccc([C@@H](O)CNC(C)(C)C)n1 [Compound 03-194] | > 1000 | – | –
OC(CNC1(C(F)(F)F)CC1)c1cccc(C(F)(F)F)n1 (stereo not drawn) [Compound 03-218] | > 1000 | – | –
CC(C)(C)NC[C@@H](O)c1ccc(C#N)cn1 [Compound 03-222] | > 1000 | – | –
Cn1cc(-c2cccc([C@H](O)CNC(C)(C)C)n2)cn1 [Compound 03-224] | 100 to 1000 | – | –
CC(C)(C)NC[C@H](O)c1ccnc(C(F)(F)F)c1 [Compound 03-227] | > 1000 | – | –
CC(C)(C)NC[C@@H](O)c1cccc(NC2CCCC2)n1 [Compound 03-236] | 100 to 1000 | – | –
CC(C)(C)N(O)C[C@H](O)c1cccc(C(N)=O)n1 [Compound 03-245] | > 1000 | – | –

More lines, main results first:

EC50 [1] [nM] | pEC50 [1] | Compound | other results
> 1000 | – | CC(C)(C)NC[C@H](O)c1cccnc1CC(F)(F)F [Compound 03-84] | –
– | < 6.00 | CC(C)(C)NC[C@H](O)c1nc(C(F)(F)F)cc2ccccc12 [Compound 03-171] | –
100 to 1000 | 6.00 to 7.00 | CC(C)Oc1cccc([C@H](O)CNC(C)(C)C)n1 [Compound 03-180] | –
– | < 6.00 | CC(C)(C)NC[C@@H](O)c1nccc2ccccc12 [Compound 03-187] | –
> 1000 | – | CC(C)(C)NC[C@H](O)c1cccc(C(=O)O)n1 [Compound 03-240] | –
> 1000 | – | CC(C)(C)NC[C@H](O)c1ccncc1C(F)(F)F [Compound 03-242] | –
